Columns and labels:
Assay in all cases: Broad selectivity panel, 32P incorporation
Assay type in all cases: biochemical
c-RAF = molecular target: T1, c-RAF (Homo sapiens, UniProt P04049); conditions: 40 μM ATP, read-out: Percent inhibition c-RAF; for inhibition at 0.1 µM: 0.1 μM compound; for inhibition at 1 µM: 1 μM compound
T1 construct: purchased Upstate (Charlottesville, Va.)
Description: (§1) Various compounds of the present invention are screened against a panel of 24 additional kinases (Upstate, Charlottesville, Va.). Compounds are tested 0.1 μM and 1 μM in reactions containing 40 μM ATP. Incorporation of radiolabeled phosphate (^32P) into each kinase substrate is measured in the presence and absence of test compound. Results are reported as the percent decrease in the amount of ^32P incorporated into the substrate in the presence of compound, compared to buffer control.

FGFR3 = molecular target: T2, FGFR3 (Homo sapiens, UniProt P22607); conditions: 40 μM ATP, read-out: Percent inhibition FGFR3; for inhibition at 0.1 µM: 0.1 μM compound; for inhibition at 1 µM: 1 μM compound
T2 construct: purchased Upstate (Charlottesville, Va.)
T2 sequence (P22607 23-806, species assumed): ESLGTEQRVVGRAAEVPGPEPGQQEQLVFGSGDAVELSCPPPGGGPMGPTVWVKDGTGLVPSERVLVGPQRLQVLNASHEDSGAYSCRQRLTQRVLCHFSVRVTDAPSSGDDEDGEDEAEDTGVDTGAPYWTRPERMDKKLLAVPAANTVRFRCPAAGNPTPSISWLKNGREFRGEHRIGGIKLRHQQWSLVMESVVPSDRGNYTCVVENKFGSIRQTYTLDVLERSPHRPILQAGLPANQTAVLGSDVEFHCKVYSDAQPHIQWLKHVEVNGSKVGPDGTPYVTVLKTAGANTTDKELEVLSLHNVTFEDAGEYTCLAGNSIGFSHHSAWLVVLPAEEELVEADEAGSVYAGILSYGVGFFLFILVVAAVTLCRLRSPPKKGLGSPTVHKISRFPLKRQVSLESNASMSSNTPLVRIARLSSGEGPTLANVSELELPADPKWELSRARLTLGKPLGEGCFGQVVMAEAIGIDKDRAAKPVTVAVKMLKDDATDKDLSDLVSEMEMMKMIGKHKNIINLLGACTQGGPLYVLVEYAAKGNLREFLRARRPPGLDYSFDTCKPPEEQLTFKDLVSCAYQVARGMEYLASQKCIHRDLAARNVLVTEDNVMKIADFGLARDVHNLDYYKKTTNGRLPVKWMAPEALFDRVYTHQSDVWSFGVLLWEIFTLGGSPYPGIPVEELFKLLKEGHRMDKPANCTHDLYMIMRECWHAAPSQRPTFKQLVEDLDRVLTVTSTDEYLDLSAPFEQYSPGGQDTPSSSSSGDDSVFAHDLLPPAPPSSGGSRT
Description: as §1

MAPK1 = molecular target: T3, MAPK1 (Homo sapiens, UniProt P27361); conditions: 40 μM ATP, read-out: Percent inhibition MAPK1; for inhibition at 0.1 µM: 0.1 μM compound; for inhibition at 1 µM: 1 μM compound
T3 construct: purchased Upstate (Charlottesville, Va.)
T3 sequence (P27361 whole entry): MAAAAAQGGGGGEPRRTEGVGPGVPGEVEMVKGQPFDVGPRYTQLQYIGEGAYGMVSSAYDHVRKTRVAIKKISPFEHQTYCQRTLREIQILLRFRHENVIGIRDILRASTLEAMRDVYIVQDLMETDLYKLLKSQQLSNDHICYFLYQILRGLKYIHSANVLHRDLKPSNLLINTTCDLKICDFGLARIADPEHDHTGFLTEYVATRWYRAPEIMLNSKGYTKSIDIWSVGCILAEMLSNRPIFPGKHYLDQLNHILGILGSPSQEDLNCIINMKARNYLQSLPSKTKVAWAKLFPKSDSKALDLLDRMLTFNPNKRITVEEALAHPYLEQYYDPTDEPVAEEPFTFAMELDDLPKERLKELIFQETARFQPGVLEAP
Description: as §1

CaMKIV = molecular target: T4, CaMKIV (Homo sapiens, UniProt Q16566); conditions: 40 μM ATP, read-out: Percent inhibition CaMKIV; for inhibition at 0.1 µM: 0.1 μM compound; for inhibition at 1 µM: 1 μM compound
T4 construct: purchased Upstate (Charlottesville, Va.)
T4 sequence (Q16566 1-473): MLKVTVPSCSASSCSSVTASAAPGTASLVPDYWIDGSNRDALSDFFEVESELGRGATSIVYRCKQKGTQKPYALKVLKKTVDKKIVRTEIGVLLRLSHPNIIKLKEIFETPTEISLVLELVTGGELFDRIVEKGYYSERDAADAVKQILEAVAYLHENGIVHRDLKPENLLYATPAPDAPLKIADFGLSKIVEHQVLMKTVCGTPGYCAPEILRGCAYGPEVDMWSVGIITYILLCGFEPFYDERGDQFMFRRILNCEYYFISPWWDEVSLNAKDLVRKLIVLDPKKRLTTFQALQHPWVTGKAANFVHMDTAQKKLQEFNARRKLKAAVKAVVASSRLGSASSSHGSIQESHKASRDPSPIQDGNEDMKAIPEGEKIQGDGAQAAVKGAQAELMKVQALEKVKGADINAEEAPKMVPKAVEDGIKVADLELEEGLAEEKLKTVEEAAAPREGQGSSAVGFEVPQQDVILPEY
Description: as §1

PDGFR α = molecular target: T5, PDGFR α (Homo sapiens, UniProt P16234); conditions: 40 μM ATP, read-out: Percent inhibition PDGFR α; for inhibition at 0.1 µM: 0.1 μM compound; for inhibition at 1 µM: 1 μM compound
T5 construct: purchased Upstate (Charlottesville, Va.)
T5 sequence (P16234 24-1089, species assumed): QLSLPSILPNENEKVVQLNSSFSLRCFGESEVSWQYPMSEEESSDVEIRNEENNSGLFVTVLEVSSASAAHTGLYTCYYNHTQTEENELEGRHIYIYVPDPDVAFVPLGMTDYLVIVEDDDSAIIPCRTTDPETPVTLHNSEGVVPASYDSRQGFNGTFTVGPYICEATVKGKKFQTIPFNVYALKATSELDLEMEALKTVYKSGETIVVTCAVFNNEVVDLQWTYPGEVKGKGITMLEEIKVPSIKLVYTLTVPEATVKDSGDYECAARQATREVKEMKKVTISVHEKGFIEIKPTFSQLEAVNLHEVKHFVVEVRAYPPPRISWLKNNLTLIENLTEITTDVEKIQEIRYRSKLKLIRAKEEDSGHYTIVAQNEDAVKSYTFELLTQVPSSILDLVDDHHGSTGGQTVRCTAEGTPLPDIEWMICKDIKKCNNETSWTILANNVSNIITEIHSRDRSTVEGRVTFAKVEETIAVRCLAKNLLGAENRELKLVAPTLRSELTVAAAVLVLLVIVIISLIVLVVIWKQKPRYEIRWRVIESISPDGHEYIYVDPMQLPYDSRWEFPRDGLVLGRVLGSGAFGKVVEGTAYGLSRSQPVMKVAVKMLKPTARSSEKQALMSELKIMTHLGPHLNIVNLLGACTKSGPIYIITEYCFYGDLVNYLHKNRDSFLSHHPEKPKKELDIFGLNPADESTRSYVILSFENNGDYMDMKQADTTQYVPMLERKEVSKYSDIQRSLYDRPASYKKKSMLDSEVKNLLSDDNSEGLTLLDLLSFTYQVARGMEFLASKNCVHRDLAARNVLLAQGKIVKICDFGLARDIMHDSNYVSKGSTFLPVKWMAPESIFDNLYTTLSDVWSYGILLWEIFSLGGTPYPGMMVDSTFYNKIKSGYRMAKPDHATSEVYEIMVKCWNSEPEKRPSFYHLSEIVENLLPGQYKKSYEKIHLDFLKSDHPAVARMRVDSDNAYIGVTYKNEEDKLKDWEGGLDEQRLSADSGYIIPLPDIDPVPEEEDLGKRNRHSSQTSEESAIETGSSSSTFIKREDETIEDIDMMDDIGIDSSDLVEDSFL
Description: as §1

ZAP-70 = molecular target: T6, ZAP-70 (Homo sapiens, UniProt P43403); conditions: 40 μM ATP, read-out: Percent inhibition ZAP-70; for inhibition at 0.1 µM: 0.1 μM compound; for inhibition at 1 µM: 1 μM compound
T6 construct: purchased Upstate (Charlottesville, Va.)
T6 sequence (P43403 1-619): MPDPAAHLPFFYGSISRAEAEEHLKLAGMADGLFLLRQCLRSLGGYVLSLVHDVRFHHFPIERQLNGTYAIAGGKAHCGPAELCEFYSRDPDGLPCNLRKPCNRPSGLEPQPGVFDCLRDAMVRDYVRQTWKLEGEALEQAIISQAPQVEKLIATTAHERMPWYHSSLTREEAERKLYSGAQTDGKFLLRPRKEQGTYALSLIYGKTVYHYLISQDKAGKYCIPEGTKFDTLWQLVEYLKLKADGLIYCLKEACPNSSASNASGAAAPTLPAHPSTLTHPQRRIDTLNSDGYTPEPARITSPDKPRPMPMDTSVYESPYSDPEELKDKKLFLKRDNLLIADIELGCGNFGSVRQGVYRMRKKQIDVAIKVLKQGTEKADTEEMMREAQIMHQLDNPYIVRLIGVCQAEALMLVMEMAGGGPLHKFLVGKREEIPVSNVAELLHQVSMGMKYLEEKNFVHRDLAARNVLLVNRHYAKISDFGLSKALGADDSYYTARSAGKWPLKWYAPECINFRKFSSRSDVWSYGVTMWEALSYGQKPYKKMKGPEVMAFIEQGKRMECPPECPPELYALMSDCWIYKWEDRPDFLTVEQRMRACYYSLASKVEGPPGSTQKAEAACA
Description: as §1

p70S6K = conditions: 40 μM ATP
Description: as §1

MKK6 = molecular target: T7, MKK6 (Homo sapiens, UniProt P52564); conditions: 40 μM ATP, read-out: Percent inhibition MKK6; for inhibition at 0.1 µM: 0.1 μM compound; for inhibition at 1 µM: 1 μM compound
T7 construct: purchased Upstate (Charlottesville, Va.)
T7 sequence (P52564 1-334): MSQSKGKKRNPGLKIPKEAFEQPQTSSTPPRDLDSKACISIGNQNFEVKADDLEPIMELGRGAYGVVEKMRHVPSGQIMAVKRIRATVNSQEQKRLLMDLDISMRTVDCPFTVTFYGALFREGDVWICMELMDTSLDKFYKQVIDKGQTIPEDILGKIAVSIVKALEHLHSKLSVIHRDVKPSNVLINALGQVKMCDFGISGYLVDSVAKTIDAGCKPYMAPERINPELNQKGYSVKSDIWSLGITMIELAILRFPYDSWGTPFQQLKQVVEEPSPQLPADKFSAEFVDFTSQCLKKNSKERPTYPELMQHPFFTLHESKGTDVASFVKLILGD
Description: as §1

CDK2/cyclinA = molecular target: T8, CDK2/cyclinA (Homo sapiens, UniProt P24941); conditions: 40 μM ATP, read-out: Percent inhibition CDK2/cyclinA; for inhibition at 0.1 µM: 0.1 μM compound; for inhibition at 1 µM: 1 μM compound
T8 construct: purchased Upstate (Charlottesville, Va.)
Description: as §1

JNK1α1 = molecular target: T9, JNK1α1 (Homo sapiens, UniProt P45983); conditions: 40 μM ATP, read-out: Percent inhibition JNK1α1; for inhibition at 0.1 µM: 0.1 μM compound; for inhibition at 1 µM: 1 μM compound
T9 construct: purchased Upstate (Charlottesville, Va.)
T9 sequence (P45983 1-384 isoform P45983-2, species assumed): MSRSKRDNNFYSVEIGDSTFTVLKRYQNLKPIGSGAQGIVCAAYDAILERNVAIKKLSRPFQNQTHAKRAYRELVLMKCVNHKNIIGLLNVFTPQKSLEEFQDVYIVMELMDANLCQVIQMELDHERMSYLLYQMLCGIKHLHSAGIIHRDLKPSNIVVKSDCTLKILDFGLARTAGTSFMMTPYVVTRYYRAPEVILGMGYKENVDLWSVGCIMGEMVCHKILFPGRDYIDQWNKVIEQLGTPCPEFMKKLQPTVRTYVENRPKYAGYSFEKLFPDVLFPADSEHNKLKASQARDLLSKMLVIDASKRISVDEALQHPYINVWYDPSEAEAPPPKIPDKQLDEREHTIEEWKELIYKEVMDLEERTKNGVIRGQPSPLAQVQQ
Description: as §1

PKBβ = molecular target: T10, PKBβ (Homo sapiens, UniProt P31751); conditions: 40 μM ATP, read-out: Percent inhibition PKBβ; for inhibition at 0.1 µM: 0.1 μM compound; for inhibition at 1 µM: 1 μM compound
T10 construct: purchased Upstate (Charlottesville, Va.)
T10 sequence (P31751 whole entry, species assumed): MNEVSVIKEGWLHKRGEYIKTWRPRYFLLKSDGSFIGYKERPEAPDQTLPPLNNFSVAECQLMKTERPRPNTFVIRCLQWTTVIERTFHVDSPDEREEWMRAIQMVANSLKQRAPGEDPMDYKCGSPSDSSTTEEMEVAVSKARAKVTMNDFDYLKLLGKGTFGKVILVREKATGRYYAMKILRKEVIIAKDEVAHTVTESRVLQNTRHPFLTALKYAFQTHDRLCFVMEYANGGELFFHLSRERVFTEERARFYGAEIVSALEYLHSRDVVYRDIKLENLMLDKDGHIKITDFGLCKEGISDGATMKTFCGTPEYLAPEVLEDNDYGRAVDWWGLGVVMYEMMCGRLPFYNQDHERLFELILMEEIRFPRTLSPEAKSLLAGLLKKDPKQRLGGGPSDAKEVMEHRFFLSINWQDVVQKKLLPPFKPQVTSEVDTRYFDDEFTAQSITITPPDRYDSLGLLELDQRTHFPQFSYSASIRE
Description: as §1

Lyn = molecular target: T11, Lyn (Homo sapiens, UniProt P07948); conditions: 40 μM ATP, read-out: Percent inhibition Lyn; for inhibition at 0.1 µM: 0.1 μM compound; for inhibition at 1 µM: 1 μM compound
T11 construct: purchased Upstate (Charlottesville, Va.)
T11 sequence (P07948 whole entry, species assumed): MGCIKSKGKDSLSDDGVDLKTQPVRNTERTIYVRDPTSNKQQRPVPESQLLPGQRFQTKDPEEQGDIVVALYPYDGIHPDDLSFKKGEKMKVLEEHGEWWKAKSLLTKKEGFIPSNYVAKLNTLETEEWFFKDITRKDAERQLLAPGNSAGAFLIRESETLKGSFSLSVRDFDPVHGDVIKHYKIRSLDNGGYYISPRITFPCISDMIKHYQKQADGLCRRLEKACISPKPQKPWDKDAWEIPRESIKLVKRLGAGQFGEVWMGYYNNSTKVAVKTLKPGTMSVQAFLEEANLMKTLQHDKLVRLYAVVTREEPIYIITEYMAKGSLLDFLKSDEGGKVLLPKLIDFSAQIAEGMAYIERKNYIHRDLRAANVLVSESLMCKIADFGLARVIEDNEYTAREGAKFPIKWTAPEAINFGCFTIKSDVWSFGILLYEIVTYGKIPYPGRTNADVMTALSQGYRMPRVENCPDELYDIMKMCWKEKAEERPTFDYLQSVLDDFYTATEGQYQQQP
Description: as §1

PKA = molecular target: T12, PKA (Homo sapiens, UniProt P17612); conditions: 40 μM ATP, read-out: Percent inhibition PKA; for inhibition at 0.1 µM: 0.1 μM compound; for inhibition at 1 µM: 1 μM compound
T12 construct: purchased Upstate (Charlottesville, Va.)
Description: as §1

T1 sequence (P04049 whole entry, species assumed): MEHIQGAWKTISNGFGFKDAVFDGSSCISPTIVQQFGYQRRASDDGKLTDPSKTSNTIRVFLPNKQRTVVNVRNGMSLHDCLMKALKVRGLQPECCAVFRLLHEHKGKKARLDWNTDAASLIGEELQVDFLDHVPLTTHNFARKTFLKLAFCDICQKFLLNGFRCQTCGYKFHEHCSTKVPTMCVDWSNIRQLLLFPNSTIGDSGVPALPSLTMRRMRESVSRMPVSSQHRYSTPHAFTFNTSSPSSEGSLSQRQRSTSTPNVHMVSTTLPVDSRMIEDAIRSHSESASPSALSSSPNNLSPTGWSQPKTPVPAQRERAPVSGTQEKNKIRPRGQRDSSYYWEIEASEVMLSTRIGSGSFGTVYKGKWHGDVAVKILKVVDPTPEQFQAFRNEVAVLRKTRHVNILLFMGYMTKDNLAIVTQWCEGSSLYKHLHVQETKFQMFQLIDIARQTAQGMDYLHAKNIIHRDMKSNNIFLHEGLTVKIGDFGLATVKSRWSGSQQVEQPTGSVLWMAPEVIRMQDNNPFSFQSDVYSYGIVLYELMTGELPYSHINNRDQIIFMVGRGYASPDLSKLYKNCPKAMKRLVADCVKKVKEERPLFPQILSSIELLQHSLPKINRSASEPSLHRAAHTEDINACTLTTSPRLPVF

SMILES | inhibition at 0.1 µM (c-RAF) | inhibition at 1 µM (c-RAF) | inhibition at 0.1 µM (FGFR3) | inhibition at 1 µM (FGFR3) | inhibition at 0.1 µM (MAPK1) | inhibition at 1 µM (MAPK1) | inhibition at 0.1 µM (CaMKIV) | inhibition at 1 µM (CaMKIV) | inhibition at 0.1 µM (PDGFR α) | inhibition at 1 µM (PDGFR α) | inhibition at 0.1 µM (ZAP-70) | inhibition at 1 µM (ZAP-70) | Percent inhibition p70S6K (p70S6K; 0.1 μM compound) | Percent inhibition p70S6K (p70S6K; 1 μM compound) | inhibition at 0.1 µM (MKK6) | inhibition at 1 µM (MKK6) | inhibition at 0.1 µM (CDK2/cyclinA) | inhibition at 1 µM (CDK2/cyclinA) | inhibition at 0.1 µM (JNK1α1) | inhibition at 1 µM (JNK1α1) | further results
Fc1ccc(-c2nc3occn3c2-c2ccnc(N[C@@H]3CN4CCC3CC4)n2)cc1 [LXXI] | 7% | 42% | -1% | 16% | 27% | 56% | 5% | 6% | 10% | 9% | -17% | 4% | −10 | 6 | -5% | 80% | 0% | 8% | -20% | 3% | inhibition at 0.1 µM (PKBβ): -42%; inhibition at 1 µM (PKBβ): -5%; inhibition at 0.1 µM (Lyn): 4%; inhibition at 1 µM (Lyn): 10%; inhibition at 0.1 µM (PKA): 16%; inhibition at 1 µM (PKA): 11%
Fc1ccc(-c2nc3occn3c2-c2ccnc(N[C@H]3CN4CCC3CC4)n2)cc1 [LXXXVII] | 15% | 58% | -23% | -21% | 12% | 27% | -12% | 10% | -6% | -11% | -51% | -14% | −4 | −1 | -4% | 54% | 1% | 0% | -25% | 0% | inhibition at 0.1 µM (PKBβ): -26%; inhibition at 1 µM (PKBβ): -29%; inhibition at 0.1 µM (Lyn): -32%; inhibition at 1 µM (Lyn): -13%; inhibition at 0.1 µM (PKA): -10%; inhibition at 1 µM (PKA): -6%

Source: US20070270418A1, “Inhibitors of P38 and Methods of Using the Same” (priority 2003, published 2007)
